Here are results for 30 compounds from patent publication US9988400B2 (Genentech, Inc., priority 2013, dated 2018).

This test addresses T1, HEK cells stably transfected with tetracycline inducible hNR1 and hNR2A (Homo sapiens, UniProt Q05586+Q12879).
T1 construct: expressed in transfected cells; host or cells: HEK cells, stably transfected, tetracycline/doxycycline inducible
Description: Assay 1: Cell-Based Assay, cytosolic calcium response to positive allosteric modulators (with 30 μM glycine and 300 nM L-glutamate, EC30). The settings on record: for EC50: cytosolic calcium response, with 30 μM glycine and 300 nM L-glutamate (EC30), — = no plateau was reached; for Max %: responses scaled relative to 100 μM L-glutamate maximal response (100%) and 0 μM L-glutamate (0%). The procedure, abridged: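 Cells induced 24 h with 7.5 μg mL^−1 doxycycline plus 500 μM (+)-ketamine, loaded 60 min at 37 °C with calcium dye in Mg-free HBSS (1.8 mM Ca, probenecid, 10 μM (+)-ketamine, pH 7.15). Peak RFU over 5 min after compound addition, scaled to 100 μM L-glutamate (100%) and 0 μM (0%); four-parameter Hill fit for EC50, max % if no plateau.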

T1 sequence (Q12879 23-1464, other chains not shown): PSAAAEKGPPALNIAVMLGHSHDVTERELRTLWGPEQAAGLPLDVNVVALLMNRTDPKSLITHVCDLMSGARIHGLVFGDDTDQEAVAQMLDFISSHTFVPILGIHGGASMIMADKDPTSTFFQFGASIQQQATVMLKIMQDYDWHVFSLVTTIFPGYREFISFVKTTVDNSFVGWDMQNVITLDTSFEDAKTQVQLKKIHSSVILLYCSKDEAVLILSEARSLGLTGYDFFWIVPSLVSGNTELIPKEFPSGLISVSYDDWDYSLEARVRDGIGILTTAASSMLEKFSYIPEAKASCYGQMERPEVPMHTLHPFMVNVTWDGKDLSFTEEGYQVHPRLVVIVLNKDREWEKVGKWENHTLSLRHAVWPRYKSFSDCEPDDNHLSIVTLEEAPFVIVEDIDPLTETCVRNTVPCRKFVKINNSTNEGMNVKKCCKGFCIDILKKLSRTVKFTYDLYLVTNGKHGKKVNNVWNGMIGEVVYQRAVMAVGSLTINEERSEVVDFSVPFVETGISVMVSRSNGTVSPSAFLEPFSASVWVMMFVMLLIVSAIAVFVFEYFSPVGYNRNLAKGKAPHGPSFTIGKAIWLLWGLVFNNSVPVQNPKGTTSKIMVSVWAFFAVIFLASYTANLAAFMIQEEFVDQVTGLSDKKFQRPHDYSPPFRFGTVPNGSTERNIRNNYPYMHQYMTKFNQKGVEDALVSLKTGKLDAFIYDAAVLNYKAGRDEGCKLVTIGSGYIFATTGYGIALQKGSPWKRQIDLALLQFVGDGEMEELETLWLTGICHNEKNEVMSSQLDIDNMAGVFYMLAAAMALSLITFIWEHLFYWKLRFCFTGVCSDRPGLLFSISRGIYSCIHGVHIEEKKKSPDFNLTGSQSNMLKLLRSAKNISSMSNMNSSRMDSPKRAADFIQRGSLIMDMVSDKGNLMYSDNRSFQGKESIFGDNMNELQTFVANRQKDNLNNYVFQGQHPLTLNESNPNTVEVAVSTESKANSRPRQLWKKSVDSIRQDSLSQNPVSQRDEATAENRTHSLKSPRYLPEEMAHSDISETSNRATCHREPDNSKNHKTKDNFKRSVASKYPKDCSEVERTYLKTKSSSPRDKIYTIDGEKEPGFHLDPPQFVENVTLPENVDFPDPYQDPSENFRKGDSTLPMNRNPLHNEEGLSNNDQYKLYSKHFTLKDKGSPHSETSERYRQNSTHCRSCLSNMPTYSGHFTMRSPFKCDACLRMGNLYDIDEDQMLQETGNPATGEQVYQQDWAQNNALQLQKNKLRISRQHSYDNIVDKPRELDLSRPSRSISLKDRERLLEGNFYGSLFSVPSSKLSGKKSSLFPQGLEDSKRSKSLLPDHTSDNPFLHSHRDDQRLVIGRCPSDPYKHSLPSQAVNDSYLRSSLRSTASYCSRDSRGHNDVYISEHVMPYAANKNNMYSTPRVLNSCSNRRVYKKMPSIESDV

For orientation: EC50 means the concentration at which the effect is half-maximal. Regarding `CNC(=O)c1c(C(F)(F)F)sc2nc(Cn3nc(C)cc3C(F)(F)F)cc(=O)n12` [compound 62, N-methyl-7-[[3-methyl-5-(trifluoromethyl)pyrazol-1-yl]methyl]-5-oxo-2-(trifluoromethyl)thiazolo[3,2-a]pyrimidine-3-carboxamide], the EC50 (Table 3) turned out to be 24600 nM.
In the case of `CCOCc1c(C)sc2nc(CN(CC)c3ccc(F)cc3)cc(=O)n12` [Example 10.16, 3-(ethoxymethyl)-7-[(N-ethyl-4-fluoro-anilino)methyl]-2-methyl-thiazolo[3,2-a]pyrimidin-5-one], where the note is “Table 2”, the EC50 came out at 2700 nM and the Max % turned out to be 147%.
The matching figures for `CCN(Cc1cc(=O)n2c(-c3cncnc3)c(C3CC3)sc2n1)c1ccc(F)cc1` [Example 5.15, 2-cyclopropyl-7-[(N-ethyl-4-fluoro-anilino)methyl]-3-pyrimidin-5-yl-thiazolo[3,2-a]pyrimidin-5-one]: 7000 nM and 144%.
For `COc1cc(C(F)(F)F)n(Cc2cc(=O)n3c(C4CC4C#N)c(C)sc3n2)n1` (stereo not shown) [compound 210, 2-[7-[[3-methoxy-5-(trifluoromethyl)pyrazol-1-yl]methyl]-2-methyl-5-oxo-thiazolo[3,2-a]pyrimidin-3-yl]cyclopropanecarbonitrile], the EC50 (Table 3) was 8920 nM.
Regarding `CCNC(=O)c1c(C)sc2nc(Cc3cccc(C#N)c3F)cc(=O)n12` [Example 21.13, 7-(3-cyano-2-fluorobenzyl)-N-ethyl-2-methyl-5-oxo-5H-thiazolo[3,2-a]pyrimidine-3-carboxamide], for the setting “Table 2”, the EC50 was 12300 nM and the Max % was 131%.
For `O=c1cc(Cn2nc(Cl)cc2C(F)(F)F)nc2sc3c(n12)CCC3` [compound 90], the EC50 (Table 3) was 1220 nM.
On to `Cc1cn2c(=O)cc(Cn3nc(C(F)(F)F)cc3C(F)(F)F)nc2s1` [Example 15.33, 7-((3,5-bis(trifluoromethyl)-1H-pyrazol-1-yl)methyl)-2-methyl-5H-thiazolo[3,2-a]pyrimidin-5-one], for which, for the setting “Table 2”, the EC50 was 18800 nM and the Max % is 51.8%.
On to `Cc1sc2nc(Cn3ccc(C(F)(F)F)n3)cc(=O)n2c1C1CC1C#N` (single isomer, unassigned) [compound 272], for which, for the setting “Table 3”, the EC50 came out at 252 nM.
As for `CCNC(=O)c1c(C)sc2nc(Cc3cccc(NS(C)(=O)=O)c3)cc(=O)n12` [Example 21.39, N-ethyl-2-methyl-7-(3-(methylsulfonamido)benzyl)-5-oxo-5H-thiazolo[3,2-a]pyrimidine-3-carboxamide], where the note is “Table 2”, the Max % came to 62.6%.
On to `CCN(Cc1cc(=O)n2c(C3CC3CO)c(C)sc2n1)c1ccc(F)cc1` (single isomer, unassigned) [Example 5.19, 7-((ethyl(4-fluorophenyl)amino)methyl)-3-(trans-2-(hydroxymethyl)cyclopropyl)-2-methyl-5H-thiazolo[3,2-a] pyrimidin-5-one], for which, for the setting “Table 2”, the EC50 stood at 1700 nM and the Max % turned out to be 141%.
The matching figures for `CCN(Cc1cc(=O)n2c(C3CC3CO)c(C)sc2n1)c1ccc(F)cc1` (single isomer, unassigned) [Example 5.18, 7-((ethyl(4-fluorophenyl)amino)methyl)-3-(trans-2-(hydroxymethyl)cyclopropyl)-2-methyl-5H-thiazolo[3,2-a] pyrimidin-5-one]: 91 nM and 164%.
Take `CCN(Cc1cc(=O)n2c3c(sc2n1)CCC3CC#N)c1ccc(F)cc1` (stereo not shown) [Example 8.13, 2-[6-[(N-ethyl-4-fluoro-anilino)methyl]-8-oxo-2,3-dihydro-1H-cyclopenta[3,4]thiazolo[1,4-a]pyrimidin-1-yl]acetonitrile]: under “Table 2”, the EC50 is 2200 nM and the Max % is listed as 162%.
For `CCNC(=O)c1c(Cl)sc2nc(Cc3cccc(C#N)c3F)cc(=O)n12` [compound 69, 2-chloro-7-[(3-cyano-2-fluoro-phenyl)methyl]-N-ethyl-5-oxo-thiazolo[3,2-a]pyrimidine-3-carboxamide], under “Table 3”, the concentration for a half-maximal effect (EC50) turned out to be 11200 nM.
For `CCNC(=O)c1c(C)sc2nc(Cc3cc(F)c(F)cc3CCF)cc(=O)n12` [compound 17, 7-[[4,5-difluoro-2-(2-fluoroethyl)phenyl]methyl]-N-ethyl-2-methyl-5-oxo-thiazolo[3,2-a]pyrimidine-3-carboxamide], the EC50 (Table 3) amounted to 7040 nM.
The same measure, in the same setting: the result for `CCN(Cc1cc(=O)n2c(/C=C/C(N)=O)c(C)sc2n1)c1ccc(F)cc1` [compound 261, (E)-3-[7-[(N-ethyl-4-fluoro-anilino)methyl]-2-methyl-5-oxo-thiazolo[3,2-a]pyrimidin-3-yl]prop-2-enamide] reads 1540 nM.
Consider `CCNC(=O)c1c(C)sc2nc(Cc3cc(C#N)ccc3CCF)cc(=O)n12` [Example 21.61, 7-(5-cyano-2-(2-fluoroethyl)benzyl)-N-ethyl-2-methyl-5-oxo-5H-thiazolo[3,2-a]pyrimidine-3-carboxamide], for which, where the note is “Table 2”, the EC50 amounted to 33100 nM and the Max % was determined as 131%.
Consider `O=c1cc(Cn2nc(C(F)(F)F)cc2Cl)nc2sc(C(F)(F)F)c(C3CC3)n12` [compound 184, 7-[[5-chloro-3-(trifluoromethyl)pyrazol-1-yl]methyl]-3-cyclopropyl-2-(trifluoromethyl)thiazolo[3,2-a]pyrimidin-5-one], for which, for the setting “Table 3”, the EC50 amounted to 9990 nM.
Regarding `CNC(=O)c1c(C)sc2nc(Cc3cccc(CO)c3F)cc(=O)n12` [Example 21.24, 7-[[2-fluoro-3-(hydroxymethyl)phenyl]methyl]-N,2-dimethyl-5-oxo-thiazolo[3,2-a]pyrimidine-3-carboxamide], where the note is “Table 2”, the EC50 stood at 34500 nM and the Max % was determined as 102%.
Turning to `CCNC(=O)c1c(OCC(F)(F)F)sc2nc(Cn3nc(C(F)(F)F)cc3Cl)cc(=O)n12` [compound 174, 7-[[5-chloro-3-(trifluoromethyl)pyrazol-1-yl]methyl]-N-ethyl-5-oxo-2-(2,2,2-trifluoroethoxy)thiazolo[3,2-a]pyrimidine-3-carboxamide], the EC50 (Table 3) was 1670 nM.
As for `CCNC(=O)c1c(C)sc2nc(Cc3cccc(C#N)c3F)c(F)c(=O)n12` [Example 21.28, 7-(3-cyano-2-fluorobenzyl)-N-ethyl-6-fluoro-2-methyl-5-oxo-5H-thiazolo[3,2-a]pyrimidine-3-carboxamide], under “Table 2”, the EC50 turned out to be 11400 nM and the Max % was 126%.
The matching figures for `CCN(Cc1cc(=O)n2c3c(sc2n1)CCC3CO)c1ccc(F)cc1` (single isomer, unassigned) [Example 8.3, 6-[(N-ethyl-4-fluoro-anilino)methyl]-1-(hydroxymethyl)-2,3-dihydro-1H-cyclopenta[3,4]thiazolo[1,4-a]pyrimidin-8-one]: 1300 nM and 150%.
Turning to `CCN(Cc1cc(=O)n2c(CN3CCC34COC4)c(C)sc2n1)c1ccc(F)cc1` [Example 10.21, 7-[(N-ethyl-4-fluoro-anilino)methyl]-2-methyl-3-(6-oxa-1-azaspiro[3.3]heptan-1-ylmethyl)thiazolo[3,2-a]pyrimidin-5-one], where the note is “Table 2”, the Max % was 117%.
Turning to `Cc1sc2nc(Cn3nc(Cl)cc3C)cc(=O)n2c1[C@@H]1C[C@H]1CO` (relative stereo) [Example 15.3, 7-((3-chloro-5-methyl-1H-pyrazol-1-yl)methyl)-3-(trans-2-(hydroxymethyl)cyclopropyl)-2-methyl-5H-thiazolo[3,2-a]pyrimidin-5-one], for the setting “Table 2”, the EC50 was determined as 489 nM and the Max % amounted to 144%.
`O=c1cc(Cn2nc(Cl)cc2C(F)(F)F)nc2scc(Br)n12` [compound 226, 3-bromo-7-[[3-chloro-5-(trifluoromethyl)pyrazol-1-yl]methyl]thiazolo[3,2-a]pyrimidin-5-one]: the EC50 (Table 3) was determined as 1420 nM.
Regarding `Cc1sc2nc(COc3ccc(F)cc3)cc(=O)n2c1C(=O)NCC1COC1` [Example 1.13, 7-((4-fluorophenoxy)methyl)-2-methyl-N-(oxetan-3-ylmethyl)-5-oxo-5H-thiazolo[3,2-a]pyrimidine-3-carboxamide], under “Table 2”, the Max % stood at 41.6%.
For `CCc1sc2nc(Cn3nc(Cl)cc3C(F)(F)F)cc(=O)n2c1C1CC1C#N` (stereo not shown) [compound 214, 2-[7-[[3-chloro-5-(trifluoromethyl)pyrazol-1-yl]methyl]-2-ethyl-5-oxo-thiazolo[3,2-a]pyrimidin-3-yl]cyclopropanecarbonitrile], the EC50 (Table 3) came out at 180 nM.
The same measure, in the same setting: the same measure for `Cc1sc2nc(Cn3nc(C(F)(F)F)cc3Cl)cc(=O)n2c1C1CC1C` (stereo not shown) [compound 118, 7-[[5-chloro-3-(trifluoromethyl)pyrazol-1-yl]methyl]-2-methyl-3-(2-methylcyclopropyl)thiazolo[3,2-a]pyrimidin-5-one]: 169 nM.
Turning to `CCN(Cc1cc(=O)n2c(N3CCOCC3)c(C)sc2n1)c1ccc(F)cc1` [Example 6.1, 7-((ethyl(4-fluorophenyl)amino)methyl)-2-methyl-3-morpholino-5H-thiazolo[3,2-a]pyrimidin-5-one], under “Table 2”, the EC50 turned out to be 10000 nM and the Max % came to 123%.
Take `CCN(Cc1cc(=O)n2c(F)c(C)sc2n1)c1ccc(F)cc1` [Example 11.2, 7-[(N-ethyl-4-fluoro-anilino)methyl]-3-fluoro-2-methyl-thiazolo[3,2-a]pyrimidin-5-one]: the Max % (Table 2) was determined as 107%.
Turning to `CNC(=O)c1c(C(F)(F)F)sc2nc(Cc3cccc(C#N)c3F)cc(=O)n12` [compound 70, 7-[(3-cyano-2-fluoro-phenyl)methyl]-N-methyl-5-oxo-2-(trifluoromethyl)thiazolo[3,2-a]pyrimidine-3-carboxamide], the EC50 (Table 3) turned out to be 2920 nM.
